Read-outs that look alike come from different tables or passages of the source.
Legend:
[1] = test system: C57BL/6 mice; format: in vivo, mouse
[2] = test system: C57BL/6 mice
Experimental: In one set of experiments, compositions were tested in male C57BL/6 jugular vein catheterized (JVC) mice, 5-6 weeks old (Taconic), by infusing the animals with the liquid sulfide liquid compositions using 1 mL or 5 mL Luer-Lok syringes (Becton Dickison). An IPTT-300 transponder from Bio Medic Data Systems (BMDS) was used to monitor body temperature.
Each mouse was dosed with liquid compositions through the in-dwelling catheter using an infusion pump (Harvard Apparatus). The mouse was infused until the temperature chip implanted in the skin registered a body temperature of 33° C. […] Once the animal's temperature dropped to 33° C. or below, the infusion was stopped and the mouse was transferred into a hypoxic atmosphere (4.0% O2) together with a control mouse.

[3] = test system: C. elegans; assay: Thermotolerance assay (survival at high temperature); format: in vivo
Experimental: (§1) Growing Nematodes in H2S-Containing Atmospheres. Bristol strain N2 (wild-type) and mutant nematode strains were grown at room temperature on nematode growth medium (NGM) plates seeded with live E. coli OP50 food (48). Mutant strains obtained from the C. elegans genetic stock center were as follows: CB130, daf-2(e1370); DR26, daf-16(m26); VC520, isp-1(gk267); MQ130, clk-1(qm30); DA1116, eat-2(ad1116); VC199, sir-2.1(ok434). Plates were maintained in atmospheric chambers sealed with Dow Corning Vacuum Grease (Sigma). […] Gasses were hydrated using gas wash bottles (Fisher), and moved through ⅛ inch outer diameter FEP tubing (Cole Parmer) with connections by snap connectors (Cole Parmer), stainless steel quick connect fittings or compression fittings (Seattle Fluid Systems). […] All compressed gas mixtures used in this study were obtained from Byrne Gas and were certified standard to within 2% of indicated concentration. Flow tubes (Aalborg) were used to distribute the gas mixture to different chambers. Gas flow rate was 100 cc/m to small boxes (100-300 mL) and 800 cc/m to the large boxes (1-3 L) used to culture nematode strains at room temperature. At these flow rates, the gaseous environment of the atmospheric chambers is exchanged every 20-30 minutes. […] Data were collected using Chart software with a Powerlab data acquisition unit (ADInstruments) and analyzed with EXCEL.
Thermotolerance Assay. […] Care was taken to prevent the population from starving. Nematodes were picked from these mixed-stage populations as L4 larvae and allowed to develop for 24-48 h at room temperature; however, treated and control animals were always the same age. […] Groups of 20-30 animals were transferred to NGM plates without food and then placed into an atmospheric chamber perfused with the indicated gas at high temperature in an Echotherm 1N35 incubator (Torrey Pines Scientific, NIST traceable) or a VWR incubator model 2005 (VWR International). A ring of palmitic acid around the edge of the plate helped prevent the worms escaping the surface of the agar. […]

[4] = test system: C. elegans; assay: Lifespan in H2S-containing atmosphere; format: in vivo
Experimental: as §1

[5] = test system: C. elegans; assay: Rate of egg-laying; format: in vivo
Experimental: Animals were picked as L4 from mixed-stage populations and allowed to develop for 20-30 hours in the same conditions at room temperature. Individual worms were then placed onto NGM plates with a 10 μL spot of OP50 food. The number of embryos laid in 3-5 hours was counted to determine the rate of egg-laying. To create an atmosphere with 2% O2, N2 was mixed with 5% O2 balanced with N2. Smart-Trak series 100 mass flow controllers (Sierra Instruments) were used to mix the gas and to split it into 2 atmospheric chambers. […] In each experiment, 10-15 individuals were included in each group. The data shown in Table 2 are from one experiment that is representative of at least three independent assays.

[6] = test system: C. elegans; assay: Brood size measurement; format: in vivo; settings: moved to H2S, n=5
Excerpt: Brood size measurement. To determine the number of viable progeny produced by nematodes, individual fourth-stage larvae (L4) were transferred to NGM plates with OP50 food at room temperature. Animals were moved daily until they quit laying fertilized eggs. Progeny were counted as L4/young adult.

[7] = test system: mice; settings: mouse, in vivo
Experimental: Experiments were stopped at 60 minutes, and animals still alive were returned to their cage.

[8] = 4.0% O2 after infusion until body temperature 33° C., test ended at 60 minutes
[9] = jugular vein infusion until body temperature of 33° C.

OC1CCSCC1 [tetrahydrothiopyran-4-ol]
survival in lethal hypoxia [1, 8]: 15 min

O=C(O)CS [thioglycolic acid]
reduction of body (subcutaneous) temperature ([2]; infusion, primary screen): reduced body temperature
toxicity ([2]; mouse, in vivo): toxic

CC(=O)N[C@@H](CS)C(=O)O [N-acetyl-L-cysteine]
reduction of body (subcutaneous) temperature ([2]; infusion, primary screen): did not reduce subcutaneous temperature

N#C[S-].[Na+] [sodium thiocyanate]
effective dose [2, 9]: 4.67 mmol/kg

CSC [dimethyl sulfide]
reduction of body (subcutaneous) temperature ([2]; infusion, primary screen): did not reduce subcutaneous temperature

SCCOCCS [2-mercaptoethyl ether]
reduction of body (subcutaneous) temperature ([2]; infusion, primary screen): reduced body temperature
toxicity ([2]; mouse, in vivo): toxic

[SeH2] [sodium selenide]
reduction of body (subcutaneous) temperature ([2]; mouse, in vivo, sc): did not reduce subcutaneous temperature

C[S-].[Na+] [sodium thiomethoxide]
survival in lethal hypoxia [1, 8]: 60 min
effective dose [2, 9]: 4.61 mmol/kg

S [H2S, hydrogen sulfide]
fraction of H2S-treated animals alive when the last untreated control animal had expired (mean) ([3]; 15 experiments, L4 to 3rd day adults, 33 to 37 C (FIG. 11A)): 0.8
average of H2S-treated animals alive when all untreated animals had died ([3]; 15 independent experiments, high temperature): 77-80%
survival time at high temperature ([3]; grown in H2S before heat-shock, exposed to 35 C in room air (FIG. 2C)): 7.3 h
delay in reaching 75% mortality versus control population (maximum lifespan) ([4]; H2S-treated animals): 10 days
lifespan ([4]; raised in H2S until L4, monitored in room air (FIG. 3C)): 12.8 ± 0.7 days
average rate of egg-laying ([5]; clk-1(qm30), assayed in 2% O2 + H2S): 2.5 ± 1.0 embryos per hour
average rate of egg-laying ([5]; clk-1(qm30), assayed in H2S): 3.2 ± 1.1 embryos per hour
average rate of egg-laying ([5]; unadapted (wild-type grown in room air), assayed in 2% O2 + H2S): 4.5 ± 1.6 embryos per hour
average rate of egg-laying ([5]; unadapted (wild-type grown in room air), assayed in H2S): 8.3 ± 3.0 embryos per hour
number of progeny [6]: 227±18
recovery after survival in 5% O2 [7]: no noticeable motor or behavioral deficits

CS(=O)[O-].[Na+] [sodium methane sulfinate]
reduction of body (subcutaneous) temperature ([2]; infusion, primary screen): did not reduce subcutaneous temperature

sodium sulfide
survival in lethal hypoxia ([1]; mouse, in vivo): 60 min
effective dose ([2]; mouse, in vivo): 0.79 mmol/kg

NCCCNCCSP(=O)(O)O [phosphorothioic acid S-(2-((3-aminopropyl)amino)ethyl)ester]
enhancement of survival in hypoxia ([1]; mouse, in vivo): did not enhance survival in hypoxia
reduction of body (subcutaneous) temperature ([2]; mouse, in vivo, sc): reduced body temperature

N=C(N)[SeH] [selenourea]
enhancement of survival in hypoxia ([1]; lethal hypoxia 4% O2): did not enhance survival in hypoxia
reduction of body (subcutaneous) temperature ([2]; mouse, in vivo, sc): reduced body temperature

C[S+](C)[O-] [Dimethylsulfoxide]
effective dose ([2]; too high to be considered for pharmaceutical purposes): 10 % DMSO

CC(O)=S [Thioacetic acid]
enhancement of survival in hypoxia ([1]; lethal hypoxia 4% O2): did not enhance survival in hypoxia
reduction of body (subcutaneous) temperature ([2]; mouse, in vivo, sc): reduced body temperature

OCCS [2-Mercapto-ethanol]
toxicity ([2]; mouse, in vivo): toxic
reduction of body (subcutaneous) temperature ([2]; mouse, in vivo, sc): reduced body temperature

NCCS [cysteamine]
survival in lethal hypoxia [1, 8]: 45 min
effective dose ([2]; mouse, in vivo): 7.58 mmol/kg
